The test system of the experiment is P388 leukemia ip, CD2F1 mice, survival T/C. Nature of the experiment: NCI In Vivo Anticancer Drug Screen. Data for tumor model P388 Leukemia (intraperitoneal) in CD2F1 (CDF1) mice. The conditions noted are these: endpoint: median survival time, higher = longer survival. The essentials:
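Mice carrying the transplanted tumor received test compound or vehicle. Survival was recorded in each group, and the value is the treated-group measurement divided by that of the vehicle-treated control group.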

Setting [1] is: dose: 25.0 mg/kg/injection, schedule: Q01DX009 (ip), vehicle: saline with Tween-80.
[2] abbreviates: dose: 100.0 mg/kg/injection, schedule: Q01DX009 (ip), vehicle: saline with Tween-80.
The mark [3] stands for this setting: dose: 200.0 mg/kg/injection, schedule: Q01DX009 (ip), vehicle: saline with Tween-80.
[4] abbreviates: dose: 50.0 mg/kg/injection, schedule: Q01DX005 (ip), vehicle: Klucel (hydroxypropylcellulose) (HPC).
[5] abbreviates: dose: 100.0 mg/kg/injection, schedule: Q01DX005 (ip), vehicle: Klucel (hydroxypropylcellulose) (HPC).
Setting [6] is: dose: 200.0 mg/kg/injection, schedule: Q01DX005 (ip), vehicle: Klucel (hydroxypropylcellulose) (HPC).
The mark [7] stands for this setting: dose: 100.0 mg/kg/injection, schedule: Q01DX001 (ip), vehicle: Klucel (hydroxypropylcellulose) (HPC).
The mark [8] stands for this setting: dose: 50.0 mg/kg/injection, schedule: Q01DX009 (ip), vehicle: saline.
[9] abbreviates: dose: 100.0 mg/kg/injection, schedule: Q01DX009 (ip), vehicle: saline.
Where [10] appears, read: dose: 60.0 mg/kg/injection, schedule: Q01DX005 (ip), vehicle: saline with Tween-80.
The mark [11] stands for this setting: dose: 50.0 mg/kg/injection, schedule: Q01DX009 (ip), vehicle: Klucel (hydroxypropylcellulose) (HPC).
[12] abbreviates: dose: 100.0 mg/kg/injection, schedule: Q01DX009 (ip), vehicle: Klucel (hydroxypropylcellulose) (HPC).

T/C data for 25 compounds are collected here from PubChem BioAssay AID330 (DTP/NCI, 2004).

Molecules are shown by their SMILES. “And” between values parts separate entries of the source, which are not always exact repeats. Equal values may be shown once. Inconclusive results and toxic doses are left out. Peptide text beside a SMILES is read from it. * marks the point of attachment. Boc = CC(C)(C)OC(=O)*

On to `O=C(NC1CC1)c1ccccc1`, for which the T/C is 96 % of control under setting [1]; 100 % of control (dose: 50.0 mg/kg/injection, schedule: Q01DX009 (ip), vehicle: saline with Tween-80); 87 % of control under setting [2]; 87 % of control under setting [3].
As to `C=CC1(C)CC(O)C2C(C)C(=O)OC2C1C(=C)C` (centres undefined), the T/C is, setting by setting: under setting [2], 100 % of control; under setting [3], 100 % of control; (dose: 400.0 mg/kg/injection, schedule: Q01DX009 (ip), vehicle: saline with Tween-80) 100 % of control.
Regarding `O=[N+]([O-])c1ccc(-c2nnn(CCCN3CCOCC3)c2N2CCCCC2)cc1`, the T/C by setting is: under setting [4], 107 % of control; under setting [5], 107 % of control; under setting [6], 107 % of control.
On to `CC1=C(C)C2C(=O)NC(=O)NC12` (centres undefined), for which the T/C was 100 % of control under setting [7] and 91 % of control (dose: 200.0 mg/kg/injection, schedule: Q01DX001 (ip), vehicle: Klucel (hydroxypropylcellulose) (HPC)).
In the case of `C/C(=N\O)C1CCN(Cc2ccccc2)CC1`, the T/C (dose: 12.5 mg/kg/injection, schedule: Q01DX005 (ip), vehicle: Klucel (hydroxypropylcellulose) (HPC)) is 105 % of control; the T/C (dose: 25.0 mg/kg/injection, schedule: Q01DX005 (ip), vehicle: Klucel (hydroxypropylcellulose) (HPC)) was 110 % of control; the T/C under setting [4] is 100 % of control and 105 % of control.
For `O=C(N/N=C/c1ccccc1[O-])c1ccccc1O.O=C(N/N=C/c1ccccc1[O-])c1ccccc1O.[Mn+2]`, the T/C under setting [4] is 100 % of control, the T/C under setting [5] is 103 % of control and the T/C under setting [6] is 103 % of control.
In the case of `C[Si](C)(c1ccc(Cl)cc1)c1ccc(Cl)cc1`, the T/C under setting [8] is 97 % of control; the T/C under setting [9] is 100 % of control; the T/C (dose: 200.0 mg/kg/injection, schedule: Q01DX009 (ip), vehicle: saline) is 99 % of control.
For `Cn1cccc1/C=N/N1CC(=O)N(c2ccc(Cl)cc2)CC1=O`, the T/C was 110 % of control (dose: 50.0 mg/kg/injection, schedule: Q01DX005 (ip), vehicle: saline with Tween-80); 106 % of control (dose: 100.0 mg/kg/injection, schedule: Q01DX005 (ip), vehicle: saline with Tween-80); 88 % of control (dose: 200.0 mg/kg/injection, schedule: Q01DX005 (ip), vehicle: saline with Tween-80).
Take `C=C(C)/C=C/S(=O)c1ccccc1` (centres undefined): the T/C is 100 % of control under setting [4], 97 % of control under setting [5] and 98 % of control under setting [6].
As to `COC1C(O)CC(OC2C(C)OC(Oc3cc(O)c4c(O)c5c(cc4c3)C[C@@H]([C@H](OC)C(=O)[C@@H](O)[C@@H](C)O)[C@H](OC3CC(OC4CC(OC6CC(C)(O)C(O)C(C)O6)C(O)C(C)O4)C(O)C(C)O3)C5=O)CC2OC(C)=O)OC1C` (some centres undefined), the T/C is, setting by setting: (dose: 37.5 mg/kg/injection, schedule: Q01DX009 (ip), vehicle: saline) 107 % of control; (dose: 75.0 mg/kg/injection, schedule: Q01DX009 (ip), vehicle: saline) 111 % of control; (dose: 150.0 mg/kg/injection, schedule: Q01DX009 (ip), vehicle: saline) 98 % of control; (dose: 300.0 mg/kg/injection, schedule: Q01DX009 (ip), vehicle: saline) 107 % of control.
In the case of `CCN(CC)CCNc1ccnc(F)n1`, the T/C was 101 % of control (dose: 30.0 mg/kg/injection, schedule: Q01DX005 (ip), vehicle: saline with Tween-80) and 103 % of control under setting [10].
As for `C[N+]1(Cc2ccccc2)C2CCC(O)C1CC2` (centres undefined), the T/C is 103 % of control (dose: 15.0 mg/kg/injection, schedule: Q01DX005 (ip), vehicle: saline); 100 % of control (dose: 30.0 mg/kg/injection, schedule: Q01DX005 (ip), vehicle: saline); 102 % of control (dose: 60.0 mg/kg/injection, schedule: Q01DX005 (ip), vehicle: saline).
For `N=c1ccc([N+](=O)[O-])cn1O`, the T/C by setting is: under setting [8], 98 % of control; under setting [9], 96 % of control.
Turning to `CN1C(=O)C2(OC(N)=C(O)C2=O)c2ccccc21` (centres undefined), the T/C is 99 % of control under setting [4], 96 % of control under setting [5] and 97 % of control under setting [6].
As to `O=C1C2C3C=CC(C3)C2C(=O)N1CNc1ccc2nc(SC3CCCC3)sc2c1` (centres undefined), the T/C was 91 % of control under setting [11] and 88 % of control under setting [12].
On to `CCN(CC)CCS(=O)Cc1ccccc1` (centres undefined), for which the T/C reads like this: under setting [10], 100 % of control; (dose: 120.0 mg/kg/injection, schedule: Q01DX005 (ip), vehicle: saline with Tween-80) 93 % of control; (dose: 240.0 mg/kg/injection, schedule: Q01DX005 (ip), vehicle: saline with Tween-80) 102 % of control.
For the compound `CC(C)(C)OC(=O)NCC(=O)NCC(=O)O` (Boc-Gly-Gly-OH), the T/C is, setting by setting: (dose: 50.0 mg/kg/injection, schedule: Q01DX005 (ip), vehicle: saline) 102 % of control; (dose: 100.0 mg/kg/injection, schedule: Q01DX005 (ip), vehicle: saline) 102 % of control; (dose: 200.0 mg/kg/injection, schedule: Q01DX005 (ip), vehicle: saline) 101 % of control.
With `CCN=C1C=CC(=C(c2ccc(N)cc2)c2ccc(N(CC)CC)c(C)c2)C=C1`, the T/C (dose: 1.56 mg/kg/injection, schedule: Q01DX005 (ip), vehicle: saline) was 106 % of control and the T/C (dose: 3.12 mg/kg/injection, schedule: Q01DX005 (ip), vehicle: saline) is 112 % of control.
Consider `COc1cc2c(cc1C[N+](C)(C)CSc1ccccc1)-c1ccccc1CC2`, for which the T/C is, setting by setting: (dose: 1.25 mg/kg/injection, schedule: Q01DX005 (ip), vehicle: DMSO) 108 % of control; (dose: 2.5 mg/kg/injection, schedule: Q01DX005 (ip), vehicle: DMSO) 101 % of control; (dose: 5.0 mg/kg/injection, schedule: Q01DX005 (ip), vehicle: DMSO) 105 % of control.
For the compound `OC(c1cc2ccc(C(F)(F)F)cc2c2cc(C(F)(F)F)ccc12)C1CCCCN1` (centres undefined), the T/C reads like this: (dose: 12.5 mg/kg/injection, schedule: Q01DX009 (ip), vehicle: saline with Tween-80) 102 % of control and 107 % of control; under setting [1], 100 % of control and 102 % of control.
On to `CC(=O)NS(=O)(=O)c1ccc(N=Cc2c3ccccc3nc3cc(Cl)ccc23)cc1`, for which the T/C was 101 % of control (dose: 100.0 mg/kg/injection, schedule: Q04DX002 (ip), vehicle: saline with Tween-80); 93 % of control (dose: 200.0 mg/kg/injection, schedule: Q04DX002 (ip), vehicle: saline with Tween-80); 101 % of control (dose: 400.0 mg/kg/injection, schedule: Q04DX002 (ip), vehicle: saline with Tween-80).
In the case of `CCNC(=O)OCc1c(Cl)nc2n1CCS2`, the T/C is 103 % of control (dose: 25.0 mg/kg/injection, schedule: Q01DX001 (ip), vehicle: Klucel (hydroxypropylcellulose) (HPC)); 110 % of control (dose: 50.0 mg/kg/injection, schedule: Q01DX001 (ip), vehicle: Klucel (hydroxypropylcellulose) (HPC)); 105 % of control under setting [7].
With `CCn1c(=O)[nH]c(=O)c2[nH]c(Cl)nc21`, the T/C was 103 % of control (dose: 16.0 mg/kg/injection, schedule: Q01DX009 (ip), vehicle: Klucel (hydroxypropylcellulose) (HPC)); 105 % of control (dose: 25.0 mg/kg/injection, schedule: Q01DX009 (ip), vehicle: Klucel (hydroxypropylcellulose) (HPC)); 107 % of control (dose: 32.0 mg/kg/injection, schedule: Q01DX009 (ip), vehicle: Klucel (hydroxypropylcellulose) (HPC)); 91 % of control under setting [11]; 102 % of control (dose: 64.0 mg/kg/injection, schedule: Q01DX009 (ip), vehicle: Klucel (hydroxypropylcellulose) (HPC)); 93 % of control under setting [12].
Take `COc1cc(N2C(N)=NC(N)=NC2(C)C)cc(OC)c1OC`: the T/C (dose: 6.25 mg/kg/injection, schedule: Q01DX009 (ip), vehicle: saline) was 100 % of control; the T/C (dose: 12.5 mg/kg/injection, schedule: Q01DX009 (ip), vehicle: saline) was 95 % of control; the T/C (dose: 25.0 mg/kg/injection, schedule: Q01DX009 (ip), vehicle: saline) was 90 % of control.
For the compound `CC(OS(C)(=O)=O)C(C)OS(C)(=O)=O` (centres undefined), the T/C was 89 % of control (dose: 100.0 mg/kg/injection, schedule: Q04DX003 (ip), vehicle: Klucel (hydroxypropylcellulose) (HPC)); 116 % of control (dose: 200.0 mg/kg/injection, schedule: Q04DX003 (ip), vehicle: Klucel (hydroxypropylcellulose) (HPC)); 120 % of control (dose: 400.0 mg/kg/injection, schedule: Q04DX003 (ip), vehicle: Klucel (hydroxypropylcellulose) (HPC)).
